These results are taken from publication doi:10.1101/2024.09.13.612887 (2024).

Some results are limits rather than exact numbers.

In one test the test system is F. ulcerans ZTP riboswitch SPR construct RNA (RNA, riboswitch) UAUCAGUUAUAUGACUGACGGAACGUGGAAUUAACCACAUGAAGUAUAACGAUGACAAUGCCGACCGUCUGGGCGUUCAUUAGCGGUAUUCCGGAAC …. The test is described as follows: SPR. The following applies: 150 mM KCl, 10 mM MgCl2; 50 mM HEPES-KOH pH 7.4, 0.005% Tween-20, 5% DMSO; apparent, no saturation, exceeds 1:1 Rmax.
`NC(=O)c1ncn(-c2ccc(-c3cnc[nH]3)cc2)c1N`: the KD is ~ 900 nM.

A further test relates to F. ulcerans ZTP riboswitch ITC construct RNA (aptamer domain) (RNA, riboswitch) UAUCAGUUAUAUGACUGACGGAACGUGGAAUUAACCACAUGAAGUAUAACGAUGACAAUGCCGACCGUCUGGGCG
The test is described as follows: ITC. The following applies: 150 mM KCl, 10 mM MgCl2; 50 mM HEPES-KOH pH 7.4, 37 °C; table value, text b16 says KD >30 μM.
Compound `COc1ccncc1-n1cnc(C(N)=O)c1N` returned a KD of 4.16 ± 0.68 µM.

Still in this test, the particulars now being: 150 mM KCl, 10 mM MgCl2; 50 mM HEPES-KOH pH 7.4, up to 3% DMSO, 37 °C.
`CNc1ccc(-n2cnc(C(N)=O)c2N)cn1` had a KD of 2.40 ± 0.36 µM. The same measure, in the same setting: under `COc1ccc(-n2cnc(C(N)=O)c2N)cn1` stands 2.45 ± 0.44 µM; under `NC(=O)c1cccc(-n2cnc(C(N)=O)c2N)c1`, 3.52 ± 0.60 µM. Same read-out and setting: under `NC(=O)c1ncn(-c2ccc(-c3cnc[nH]3)cc2)c1N` stands 1.46 ± 0.21 µM; under `NC(=O)c1ncn(-c2ccc(-c3ncc[nH]3)nc2)c1N`, 3.18 ± 0.44 µM.

Take `NC(=O)c1ncn(-c2ccc(Cl)nc2)c1N`: the KD is 2.19 ± 1.4 µM. `NC(=O)c1ncn(-c2ccc(NCc3ccccc3)nc2)c1N` returned a KD of 13.8 ± 1.5 µM. Still for that read-out and setting: under `NC(=O)c1ncn(-c2ccc3[nH]ccc3c2)c1N` stands 3.20 ± 1.3 µM; under `NC(=O)c1ncn(-c2ccc3cc[nH]c3c2)c1N`, 4.99 ± 0.64 µM. Still for that read-out and setting: under `NC(=O)c1ncn(-c2ccc3cccnc3c2)c1N` stands 1.36 ± 0.17 µM; under `NC(=O)c1ncn(-c2ccc3ncccc3c2)c1N`, 1.28 ± 0.26 µM; under `NC(=O)c1ncn(-c2cccc(O)c2)c1N`, 2.47 ± 0.37 µM. On the same count and under the same terms, under `NC(=O)c1ncn(-c2ccccc2)c1N` stands 1.84 ± 0.41 µM; under `NC(=O)c1ncn(-c2cnc3cccnc3c2)c1N`, 0.864 ± 0.21 µM. As for `NC(=O)c1ncn(-c2cnc3ncccc3c2)c1N`, the KD amounted to 0.778 ± 0.28 µM.

`NC(=O)c1ncn(-c2cncnc2)c1N` had a KD of 1.22 ± 0.45 µM.

With `NC(=O)c1ncn(Cc2ccncc2)c1N`, the KD was found to be 15.0 ± 7.1 µM.

The test is the same for the next values; noted with them: 150 mM KCl, 10 mM MgCl2; 50 mM HEPES-KOH pH 7.4, up to 3% DMSO, 37 °C; N.B. (>30 μM or not measurable).
Consider `Cc1ncccc1-n1cnc(C(N)=O)c1N`, for which the KD is more than 30 µM. The same measure, in the same setting: under `NC(=O)c1cn(-c2ccncc2)cn1` stands more than 30 µM; under `NC(=O)c1ncn(-c2cccc3cccnc23)c1N`, more than 30 µM. `NC(=O)c1ncn(Cc2ccccc2)c1N` registered a KD of more than 30 µM. The compound `NC(=O)c1ncn(Cc2cnccn2)c1N` gave a KD of more than 30 µM. On the same count and under the same terms, under `NC(=O)c1ncn([C@@H]2CCCNC2)c1N` stands more than 30 µM. On the same count and under the same terms, under `NC(=O)c1ncn([C@H]2CCCNC2)c1N` stands more than 30 µM.

Still in this test, the particulars now being: 150 mM KCl, 10 mM MgCl2; 50 mM HEPES-KOH pH 7.4, up to 3% DMSO, 37 °C; text prints 13.7 ± 7.8.
Compound `NC(=O)c1nnn(-c2cccnc2)c1N` yielded a KD of 13.5 ± 7.85 µM.

A further test deals with S. ondontolytica ZTP riboswitch used for crystallography (64-nt) (RNA, riboswitch, 5'-hydroxyl (hammerhead-cleaved, lacks 5'-phosphate)) GGGUCGUGACUGGCGAACAGGUGGGAAACCACCGGGGAGCGACCCUUGCCGCCCGCCUGGGCAA
The test is described as follows: X-ray crystallography. The following applies: Mg2+; co-crystal structure, 2.2 Å, partially refined.
As to `NC(=O)c1ncn(-c2cnc3ncccc3c2)c1N`, the binding result was “yes”.

Still in this test, the particulars now being: Mg2+; co-crystal structure, 2.4 Å.
`NC(=O)c1ncn(-c2cccnc2)c1N`: the binding result is given as “yes”.
